Measured values published in the supplement of paper PMC10307832.

Tests used:
Assay in all cases: relative viability (nuclei count vs DMSO), 5 days (fraction); higher = more cells survive
AZD1208 + Lapatinib = compound: N[C@@H]1CCCN(c2c(/C=C3\SC(=O)NC3=O)cccc2-c2ccccc2)C1 [AZD1208] + CS(=O)(=O)CCNCc1ccc(-c2ccc3ncnc(Nc4ccc(OCc5cccc(F)c5)c(Cl)c4)c3c2)o1 [Lapatinib] (partner 2 µM)
How it was run: (§1)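 Cells from lung cancer lines were seeded into 1536-well plates and, one day later, dosed by pin tool. Treatments were either a single drug or a fixed dose of an anchor drug with five library-drug doses (not always all listed) in √10 steps. After 5 days, nuclei were stained in a one-step fixation (final 0.05% Triton X-100, 1% formaldehyde, 1 ug/ml Hoechst) and counted on 4× images, and relative viability is the treated-to-vehicle nuclei ratio, as the median of duplicate plates.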

XMD14-99 + Phenformin = compound: CN1CCN(CC1)C2=CC(=C(C=C2)NC3=NC(=C(S3)C(=O)C4=C(C=CC=C4Cl)Cl)N)OC [XMD14-99] + N=C(N)NC(=N)NCCc1ccccc1 [Phenformin] (partner 250 µM)
How it was run: as §1

AZD1208 + Vorinostat = compound: N[C@@H]1CCCN(c2c(/C=C3\SC(=O)NC3=O)cccc2-c2ccccc2)C1 [AZD1208] + O=C(CCCCCCC(=O)Nc1ccccc1)NO [Vorinostat] (partner 1 µM)
How it was run: as §1

XMD14-99 + Vorinostat = compound: CN1CCN(CC1)C2=CC(=C(C=C2)NC3=NC(=C(S3)C(=O)C4=C(C=CC=C4Cl)Cl)N)OC [XMD14-99] + O=C(CCCCCCC(=O)Nc1ccccc1)NO [Vorinostat] (partner 1 µM)
How it was run: as §1

Cell Line | relative viability (AZD1208 + Lapatinib; first compound 0.08 µM) | relative viability (AZD1208 + Lapatinib; first compound 0.253 µM) | relative viability (AZD1208 + Lapatinib; first compound 0.8 µM) | relative viability (AZD1208 + Lapatinib; first compound 2.53 µM) | relative viability (AZD1208 + Lapatinib; first compound 8 µM) | relative viability (XMD14-99 + Phenformin; first compound 0.08 µM) | relative viability (XMD14-99 + Phenformin; first compound 0.8 µM) | relative viability (XMD14-99 + Phenformin; first compound 2.53 µM) | relative viability (XMD14-99 + Phenformin; first compound 8 µM) | relative viability (AZD1208 + Vorinostat; first compound 0.08 µM) | relative viability (AZD1208 + Vorinostat; first compound 0.253 µM) | relative viability (AZD1208 + Vorinostat; first compound 0.8 µM) | relative viability (AZD1208 + Vorinostat; first compound 2.53 µM) | relative viability (AZD1208 + Vorinostat; first compound 8 µM) | relative viability (XMD14-99 + Vorinostat; first compound 0.08 µM) | relative viability (XMD14-99 + Vorinostat; first compound 0.8 µM) | relative viability (XMD14-99 + Vorinostat; first compound 2.53 µM) | relative viability (XMD14-99 + Vorinostat; first compound 8 µM)
LXF-289 | 0.941 | 0.954 | 0.917 | 0.958 | 0.868 | 0.52 | 0.502 | 0.487 | 0.457 | 0.791 | 0.849 | 0.701 | 0.715 | 0.832 | 0.754 | 0.696 | 0.726 | 0.738
PC-3 [JPC-3] | 0.424 | 0.412 | 0.451 | 0.413 | 0.389 | 0.494 | 0.505 | 0.517 | 0.47 | 1.13 | 0.746 | 0.857 | 0.909 | 0.926 | 1.04 | 0.843 | 0.756 | 0.539
NCI-H661 | 0.397 | 0.425 | 0.396 | 0.383 | 0.46 | 0.292 | 0.272 | 0.263 | 0.296 | 0.796 | 0.775 | 0.827 | 0.82 | 0.917 | 0.807 | 0.768 | 0.627 | 0.522
NCI-H1666 | 0.442 | 0.574 | 0.452 | 0.389 | 0.456 | 0.567 | 0.553 | 0.494 | 0.533 | 1.06 | 1.02 | 0.887 | 0.966 | 0.908 | 1.04 | 0.967 | 0.947 | 0.895
NCI-H2087 | 1.11 | 1.32 | 1.13 | 1.47 | 0.9 | 0.445 | 0.408 | 0.346 | 0.2 | 0.789 | 0.795 | 0.752 | 0.73 | 0.406 | 0.617 | 0.668 | 0.864 | 0.449
NCI-H1734 | 1.01 | 1.06 | 1.01 | 0.822 | 0.627 | 0.348 | 0.376 | 0.368 | 0.381 | 0.731 | 0.739 | 0.756 | 0.663 | 0.599 | 0.803 | 0.785 | 0.799 | 0.581
NCI-H2228 | 1.03 | 1.3 | 0.971 |  | 0.652 | 0.382 | 0.344 | 0.168 | 0.152 | 0.647 | 0.624 | 0.793 | 0.448 | 0.464 | 0.719 | 0.683 | 0.727 | 0.33
EMC-BAC-2 | 0.827 | 0.889 | 0.783 | 0.835 | 0.723 | 0.51 | 0.515 | 0.445 | 0.384 | 0.872 | 0.394 | 0.447 | 0.469 | 0.399 | 0.493 | 0.585 | 0.447 | 0.199
NCI-H2009 | 0.982 | 1.21 | 0.817 | 0.742 | 0.893 | 0.482 | 0.442 | 0.331 | 0.251 | 0.747 | 0.777 | 0.698 | 0.788 | 0.67 | 0.815 | 0.727 | 0.63 | 0.423
NCI-H596 | 1.05 | 1.1 | 0.967 | 0.984 | 0.835 | 0.799 | 0.883 | 0.733 | 0.784 | 0.628 | 0.632 | 0.558 | 0.661 | 0.48 | 0.635 | 0.645 | 0.794 | 0.536
NCI-H650 | 1.06 | 0.771 | 1.06 | 0.648 | 0.817 | 0.497 | 0.465 | 0.423 | 0.364 | 0.436 | 0.379 | 0.47 | 0.414 | 0.351 | 0.348 | 0.455 | 0.439 | 0.411
SW 1573 | 1.02 | 1.07 | 0.959 | 1.01 | 1.05 | 0.357 | 0.386 | 0.413 | 0.363 | 0.505 | 0.862 | 0.456 | 0.479 | 0.404 | 0.833 | 0.765 | 0.756 | 0.631
NCI-H1650 | 0.777 | 0.878 | 0.735 | 0.602 | 0.667 | 0.375 | 0.498 | 0.361 | 0.312 | 0.635 | 0.464 | 0.643 | 0.588 | 0.472 | 0.554 | 0.558 | 0.678 | 0.427
NCI-H2023 | 0.757 | 0.903 | 0.68 | 0.668 | 0.635 | 0.378 | 0.422 | 0.338 | 0.245 | 0.627 | 0.769 | 0.517 | 0.689 | 0.571 | 0.572 | 0.648 | 0.732 | 0.363
LOU-NH91 | 0.727 | 0.704 | 0.662 | 0.703 | 0.583 | 0.716 | 0.777 | 0.573 | 0.556 | 0.965 | 0.955 | 0.864 | 0.838 | 0.865 | 0.947 | 1.03 | 0.805 | 0.725
NCI-H3122 | 1.08 | 0.984 | 1 | 1.05 | 1.15 | 0.372 | 0.361 | 0.291 | 0.237 | 0.97 | 0.943 | 0.924 | 1.05 | 0.524 | 0.962 | 0.991 | 0.923 | 0.707
LCLC-97TM1 | 1.03 | 0.92 |  | 0.882 | 0.546 | 0.431 | 0.414 | 0.466 | 0.355 | 0.64 | 0.99 | 0.623 | 0.442 | 0.54 | 0.732 | 0.661 | 0.604 | 0.315
NCI-H647 | 1.04 | 1.58 | 1.04 | 0.97 | 0.742 | 0.526 | 0.494 | 0.6 | 0.489 | 0.521 | 0.701 | 0.643 | 0.428 | 0.256 | 0.522 | 0.581 | 0.648 | 0.582
